Assay [1] concerns MCF-7 cells. The experiment in a line: Sulphorodamine B assay, MCF-7. The assay is classed as cell-based, human. As to conditions: 72 h, Fig 2. On the procedure:
In addition to the MTT assay, cell viability was measured by the Sulphorodamine B assay according to Vichai and Kirtikara. The MCF-7 and MDA-MB-23 cells were seeded and treated as for the MTT assay. After incubation the medium was removed and the cells were fixed with cold (4°C) trichloroacetic acid (final concentration 10%) for 1h. Than plates were washed 4 times with water and stained for 30 min, following by staining with sulforhodamine B (SRB) 0.4% in 1% acetic acid solution at room temperature for 20 min. After staining, the SRB solution was removed and the plates washed 5 times with 1% acetic acid dried. Bound SRB was solubilized with 200 μl 10 mM unbuffered Tris-base solution and plates were shaked for 10 min. The absorbance at 510 nm was measured using a plate reader (Biotek Instruments, Elx-800).

Another assay deals with T1, ERα W383A (Homo sapiens, UniProt P03372, W383A).
T1 construct: expressed in transfected cells; host or cells: HEK293
T1 sequence (P03372 1-595 W383A): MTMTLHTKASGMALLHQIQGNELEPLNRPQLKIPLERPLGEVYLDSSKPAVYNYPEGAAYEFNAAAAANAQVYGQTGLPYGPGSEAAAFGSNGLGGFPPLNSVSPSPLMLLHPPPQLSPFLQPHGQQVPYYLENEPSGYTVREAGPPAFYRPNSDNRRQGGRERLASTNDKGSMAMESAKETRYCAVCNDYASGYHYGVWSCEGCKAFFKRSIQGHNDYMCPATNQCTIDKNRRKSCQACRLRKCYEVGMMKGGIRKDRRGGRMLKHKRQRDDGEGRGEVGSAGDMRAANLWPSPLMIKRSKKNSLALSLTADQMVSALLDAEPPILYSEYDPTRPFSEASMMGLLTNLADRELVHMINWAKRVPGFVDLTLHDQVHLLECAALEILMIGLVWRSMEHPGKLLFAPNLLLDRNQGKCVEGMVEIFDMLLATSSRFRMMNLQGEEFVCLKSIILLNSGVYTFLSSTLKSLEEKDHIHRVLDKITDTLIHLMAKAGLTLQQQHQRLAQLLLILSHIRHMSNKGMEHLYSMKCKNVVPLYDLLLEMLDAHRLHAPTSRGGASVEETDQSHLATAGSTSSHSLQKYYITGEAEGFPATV
The experiment in a line: Estrogen Receptor luciferase assay in HEK293 cells transfected with ERα W383A. Format: cell-based. As to conditions: HEK293, Fig 6A. The source says: To obtain a eukaryotic vector expressing only the ER-α nuclear receptor, a construct was designed by cloning a KpnI-BamHI fragment from plasmid pEGFP-C1-ERα containing the ERα coding sequence that includes a stop signal into the pEGFP-N3 plasmid (Clontech Laboratories, Palo Alto, CA) under the control of the CMV promoter. […] For mock transfections, pEGFP-N3 plasmid was digested with BglII and NotI and religated after polishing DNA ends to remove GFP coding sequence. Plasmid sequence was confirmed by automatic sequencing. Prior to transfection, cells were seeded in 48 well plates at density of 1.5 x 10^4 cells/well and incubated for 24 h to reach a cell confluence of 80–90%. […] MCF-7 cells, which endogenously express ERα receptor, were transfected with p3xERRE/ERE-luciferase plus the pRLTK Renilla luciferase control plasmid (95:5). Firefly and Renilla luciferase activities were measured using the Dual Luciferase Assay System (Promega, Madison, WI, USA), following a standard protocol using a Sirius L luminometer (Berthold Technologies, Bad Wildbad, Germany). Data were expressed as relative changes in luciferase activity and normalized to 100%.
Plasmids for the expression of the ERα W383A and ER-α W383S mutated receptors were constructed by the quick change site directed mutagenesis method using plasmid pEGFP-N-ERα as template.

For assay [2], the system named is MCF-7 cells. The experiment in a line: LDH release assay, MCF-7. Format: cell-based, human. To be noted: 72 h, Fig 2. On the procedure: Cytotoxicity was evaluated by measuring the cell membrane permeability, using a LDH assay kit purchased from Cayman Chemical (Ann Arbor USA). The LDH assay was performed for MCF-7 and MDA-MB-231 cells (seeded at 2×10^4 density). As a positive control cell permeabilization with 1%Triton X-100 was used. The assay was performed 72h after start the incubation. Briefly, the plates were centrifuged at 400 ×g for 5 minutes, and 100 μL of supernatant were transferred from each well to the new 96-well plate and analyzed according to the manufacturer’s protocol. 100 μL of reaction mixture, containing lactic acid, NAD^+, tetrazolium salt and diaphorase, was added to each well. Plates were incubated on an orbital shaker for 30 minutes at room temperature and the absorbance at 490 nm was measured with a plate reader (Biotek Instruments, Elx-800). Results were expressed as a percentage of the total value of the positive control.
(In general: LDH leaks from cells whose membrane has failed.)

Assay [3] has as its system ERα W383S transfected HEK293 cells. The experiment in a line: MTT cell viability, ERα W383S transfected HEK293 cells. Format: cell-based, human. As to conditions: 0–100 μM, 72 h, compared to wild type ERα, Fig 6B. On the procedure: Compounds were dissolved in DMSO to the final concentration of 100 μM. A549, CCD39Lu, MCF-7, MDA-MB-231 and MCF-12A cells were seeded in 96 wells plates at density 2x10^4 cells/well and incubated overnight as described above. Subsequently, cells were treated with tested compounds at concentrations: 100 μM; 50 μM; 25μM; 12.5μM; 6 μM; 3 μM; 1.5 μM. […] Cells were incubated 72 h at 37°C in a humidified atmosphere containing 5% CO2 in the cell culture media appropriate for each cell line. Then, the medium was aspirated and 170 μl MTT solution (5mg/ml) was added to each well. Plates were incubated for 2 hours at 37°C, and then plates were centrifuged at 1200 rpm for 3 minutes. […] Absorbance at 570 nm (with reference wavelenght 650 nm) was measured using a plate reader (Biotek Instruments, Elx-800). Cell viability was calculated as a percentage relative to the control.
Fig 6 Estrogenic and cytotoxic activity of tested compounds in HEK293 cells transfected with wild type ERα receptor or plasmids bearing mutated versions of ERα. […] Results are expressed as mean ± SEM (n = 8). * p < 0.05 was considered statistically significant. […] 48 h after transfection, cells were incubated in the presence of increasing concentrations of compounds 18 for 72 h and cell viability was measured by MTT assay. […]

Take `Fc1ccc(NC(=S)c2ccc(NC(=S)c3ccc(F)cc3)cc2)cc1` [Compound 18]: the “Effect in SRB assay, MCF-7” value in the assay with MCF-7 cells [1] is recorded as “strong effect”. In addition, the “Activation of ER dependent transcription, ERα W383A vs wild type” value on ERα W383A is on record as “less active”. Besides, in the assay with MCF-7 cells [2], the “LDH release, MCF-7” value is “relatively low increase”. Besides, the “Cell viability, ERα W383S transfected HEK293” value in assay [3] is given as “decrease was significantly smaller”.

Source of the values: PMC4701221, “Novel Promising Estrogenic Receptor Modulators: Cytotoxic and Estrogenic Activity of Benzanilides and Dithiobenzanilides” (PLoS ONE, 2016).
